These results are taken from patent US20010025053A1, “Use of nitric oxid synthase inhibitors for the treatment of diabetes” (Smith Kline Beecham p.l.c., priority 1997, published 2001).

The test system of the test is obese db/db mouse. Briefly: obese db/db mouse model of type 2 non-insulin dependent diabetes. Type of test: in vivo. Particulars: obese db/db mice. From the text: The obese db/db mouse is a genetic model of type 2 non-insulin dependent diabetes which is both insulin resistant and hyperglycaemic. Male animals were obtained at 6 weeks of age. Blood samples were taken by tail tip snip for measurement of pre-treatment blood glucose. Animals were allocated into treated and control groups such that the mean and standard deviation of the fasting blood glucose concentrations of each group was similar.
On day 0 of the study a group of obese animals and their lean litter mates were killed for measurement of baseline biochemistry and histology. In addition one group of animals (control; n=14) were fed a standard diet and a further group received aminoguanidine (500 mg/kg; n=14) in the same diet. Animals were allowed free access to food and water and their intake measured daily. At weekly intervals 24 hr urine output was also measured. Mice (n=7) were killed at 30 days and 85 days from commencement of treatment. Blood was taken for measurement of glucose and insulin concentrations and the pancreas removed for histological analysis and for measurement of pancreatic insulin.

The mark [1] stands for this setting: from day 63 compared to day 7, FIG. 1.

For the molecule `N=C(N)NN` [Aminoguanidine, Hydrazinecarboximidamide], the islet morphology result (day 30 of treatment, histology) is given as “normal islet morphology was preserved”. In addition, the islet insulin content result (day 30 of treatment, vs untreated controls) was “greater”. In addition, the urinary glucose excretion entry (from day 35, vs untreated, FIG. 1) is listed as “lower”. In addition, under setting [1], the “increase in urine output (polyuria)” value is recorded as “prevented” and the “increase in water intake (polydipsia)” value is listed as “prevented”. Also, where the note is “treated vs untreated”, the “pancreatic insulin content relative to untreated animals” value is “twice that of the untreated animals”.
